From article PMC12189828, “Substitution of Proline Residues by 4-Fluoro-L-Proline Affects the Mechanism of the Proline-Rich Antimicrobial Peptide Api137” (Antibiotics, 2025)
Where a SMILES comes first, the peptide text is derived from it. [ ]: non-standard residue; d: D form. The star is where a group is joined. Orn(α-tetramethylguanidino) = CN(C)C(=N[C@@H](CCCN)C(=O)*)N(C)C; Pro(trans-4-F) = O=C(O)[C@@H]1C[C@@H](F)CN1; Pro(cis-4-F) = O=C(O)[C@@H]1C[C@H](F)CN1

How the values were obtained:
[1] = test system: 50S subunit assembly / 70S ribosome in E. coli RN31; assay: Ribosome profile analysis (RPA), sucrose gradient of E. coli RN31 lysate; format: cell-based, Escherichia coli; settings: 90 min; for RPA [pre-50S formation]: E. coli RN31, 33% TSB, peptide 8 µg/mL, 5–25% sucrose gradient, n = 2 (Api137 n = 7)
Description: E. coli RN31 was grown in 33% TSB (37 °C, 200 rpm) from a starting OD600 of 0.05 to an OD600 of 0.2, measured on a NanoPhotometer® (NP80; Implen; Westlake Village, CA, USA), and divided into subcultures that were inoculated with a peptide ([…]) before being cultured for 90 min (37 °C, 200 rpm). The following steps were performed on ice. Cells were harvested by centrifugation (4000× g, 4 °C, 25 min), washed with TICO buffer (20 mmol/L Hepes-KOH, pH 7.6, 6 mmol/L MgAc2, 30 mmol/L KAc), centrifuged (4000× g, 25 min, 4 °C), and stored at −80 °C. The cell pellet was suspended in TICO buffer (500 µL) and mixed with silica beads (zirconium glass pellets, 100 µm diameter; Carl Roth; Karlsruhe, Germany) to lyse the cells on a FastPrep-24^TM 5G (MP Biomedicals, Solon, OH, USA) using three disruption cycles (30 s, 6.0 m/s) interrupted by 1 min of incubation on ice after each cycle. Cell debris was removed by centrifugation (5000× g, 4 °C, 5 min), the supernatant was transferred to a new reaction tube, centrifuged (20,000× g, 4 °C, 20 min), the absorbance was recorded at 260 nm on a NanoPhotometer® NP80, and the sample was stored at −80 °C.
A 5% (w/v) sucrose solution (6.5 mL) in TICO buffer containing 2-mercaptoethanol (4 mmol/L) was poured into an open-top centrifuge tube (13.2 mL, 14 × 89 mm, Beckman Coulter) and bottomed with a 25% (w/v) sucrose solution (6.5 mL) in TICO buffer containing 2-mercaptoethanol (4 mmol/L) using a cannula. The tube was sealed with parafilm and placed horizontally at 4 °C for 3 h and vertically at 4 °C for 30 min. A portion of the upper layer (550 µL) was replaced by lysate (500 µL, A260 = 30) and centrifuged using a swing-out rotor (SW 41 Ti, 52,500× g, 4 °C, 19 h) without a brake. The contents were transferred from bottom-up to obtain equal volumes in all wells of a black 96-well plate with a flat bottom (96 Well PP black Greiner Bio-One GmbH, Frickenhausen, Germany) using the Äkta Purifier 10 system, and absorbance was recorded at a wavelength of 254 nm. Fluorescence was measured in the plate using the PARADIGM at excitation (λex) and emission (λem) wavelengths of 485 nm and 535 nm for eGFP and 585 nm and 635 nm, respectively, for mCherry and normalized to the 70S ribosome peak (set to 100%).

[2] = test system: in vitro expression of sfGFP in the presence of RF1; assay: In vitro transcription-translation (iTT) assay of sfGFP in the presence of RF1; format: biochemical; settings: peptide 5 µmol/L, RF1, 37 °C, 2 h, fluorescence, normalized to absence of PrAMPs, n = 3
Description: The sfGFP expression analysis relied on the NEB PureExpress Delta RF123 Kit (New England Biolabs, Frankfurt, Germany). The DNA template encoding sfGFP with a UAG stop codon was amplified from the pY71sfGFP vector by PCR using the primers sfGFP fwd ([…]) and sfGFP rev ([…]). The release factor RF1 of the kit was diluted 50-fold (v/v) in 1× Pure System Buffer (PSB, 1 mol/L magnesium acetate, 0.5 mol/L K3PO4 (pH 7.3), 1 mol/L potassium glutamate, 1 mol/L NH4Cl, 0.5 mol/L CaCl2, 1 mol/L spermidine, 0.1 mol/L putrescine, 0.1 mol/L DTT). sfGFP expression was performed in a freshly prepared mixture of kit solution A (2 µL), kit solution B (1.5 µL), 50-fold diluted RF1 (0.5 µL), sfGFP template (0.1325 pmol, 35 ng) or water as control (0.25 µL), PSB (0.25 µL), and a PrAMP (50 or 0 µmol/L) dissolved in water (0.5 µL). The reaction mixture was transferred to a black 384-well plate (flat bottom, PS, 784900, Greiner Bio-One GmbH), covered with a lid, and incubated (37 °C, 2 h) in a microplate reader (Gemini EM, Molecular Devices, San Jose, CA, USA). Fluorescence was recorded every 10 min (λex = 485 nm, λem = 535 nm).

E. coli RN31 = assay: Growth inhibition of E. coli RN31 during 90 min exponential growth phase; format: cell-based, Escherichia coli; settings: for reduction of bacterial growth vs untreated control: E. coli RN31, 33% TSB, peptide 8 µg/mL, OD600, two biological replicates (n = 2)
Description: The following steps were performed on ice. Cells were harvested by centrifugation (4000× g, 4 °C, 25 min), washed with TICO buffer (20 mmol/L Hepes-KOH, pH 7.6, 6 mmol/L MgAc2, 30 mmol/L KAc), centrifuged (4000× g, 25 min, 4 °C), and stored at −80 °C. The cell pellet was suspended in TICO buffer (500 µL) and mixed with silica beads (zirconium glass pellets, 100 µm diameter; Carl Roth; Karlsruhe, Germany) to lyse the cells on a FastPrep-24^TM 5G (MP Biomedicals, Solon, OH, USA) using three disruption cycles (30 s, 6.0 m/s) interrupted by 1 min of incubation on ice after each cycle. Cell debris was removed by centrifugation (5000× g, 4 °C, 5 min), the supernatant was transferred to a new reaction tube, centrifuged (20,000× g, 4 °C, 20 min), the absorbance was recorded at 260 nm on a NanoPhotometer® NP80, and the sample was stored at −80 °C. […]

Compound | RPA [pre-50S formation] [1] | Residual iTT (sfGFP expression relative to no PrAMP) [2] [%] | reduction of bacterial growth vs untreated control (E. coli RN31; 90 min) [%] | 70S peak (area) relative to untreated control ([1]; E. coli RN31, peptide 8 µg/mL, sucrose gradient profile) | Residual iTT (sfGFP expression relative to no PrAMP) ([2]; listed as 4S-Fpr16) [%] | Residual iTT (sfGFP expression relative to no PrAMP) ([2]; listed as Pro16 4S-Fpr (cis)) [%] | ribosomal profile, pre-50S peak ([1]; E. coli RN31, adjusted peptide concentration 4 µg/mL) | Residual iTT (sfGFP expression relative to no PrAMP) ([2]; listed as 4R-Fpr16) [%] | Residual iTT (sfGFP expression relative to no PrAMP) ([2]; listed as Pro16 4R-Fpr (trans)) [%] | OD600 of treated culture after 90 min (E. coli RN31; E. coli RN31, peptide 8 µg/mL, 90 min, initial OD600 = 0.226 ± 0.006 at 0 min) | cell count relative to the initial cell count (E. coli RN31; E. coli RN31, peptide 8 µg/mL, 90 min vs 0 min (OD600))
CC[C@H](C)[C@H](NC(=O)[C@H](Cc1ccc(O)cc1)NC(=O)[C@@H](NC(=O)[C@@H]1CCCN1C(=O)[C@H](CCCNC(=N)N)NC(=O)[C@H](CC(N)=O)NC(=O)[C@H](CC(N)=O)NC(=O)[C@H](CCCN)N=C(N(C)C)N(C)C)C(C)C)C(=O)N1CCC[C@H]1C(=O)N[C@@H](CCCNC(=N)N)C(=O)N1CCC[C@H]1C(=O)N[C@@H](CCCNC(=N)N)C(=O)N1C[C@@H](F)C[C@H]1C(=O)N1CCC[C@H]1C(=O)N[C@@H](Cc1c[nH]cn1)C(=O)N1CCC[C@H]1C(=O)N[C@@H](CCCNC(=N)N)C(=O)N[C@@H](CC(C)C)C(=O)O [Api843] ({Orn(α-tetramethylguanidino)}-NNRPVYIPRPR[Pro(cis-4-F)]PHPRL-OH) | yes | 28 ± 3.2 | 56 |  |  |  |  |  |  |  | 
CC[C@H](C)[C@H](NC(=O)[C@H](Cc1ccc(O)cc1)NC(=O)[C@@H](NC(=O)[C@@H]1CCCN1C(=O)[C@H](CCCNC(=N)N)NC(=O)[C@H](CC(N)=O)NC(=O)[C@H](CC(N)=O)NC(=O)[C@H](CCCN)N=C(N(C)C)N(C)C)C(C)C)C(=O)N1C[C@@H](F)C[C@H]1C(=O)N[C@@H](CCCNC(=N)N)C(=O)N1CCC[C@H]1C(=O)N[C@@H](CCCNC(=N)N)C(=O)N1CCC[C@H]1C(=O)N1CCC[C@H]1C(=O)N[C@@H](Cc1c[nH]cn1)C(=O)N1CCC[C@H]1C(=O)N[C@@H](CCCNC(=N)N)C(=O)N[C@@H](CC(C)C)C(=O)O [Api845] ({Orn(α-tetramethylguanidino)}-NNRPVYI[Pro(cis-4-F)]RPRPPHPRL-OH) | yes | 26 ± 5.7 | 62 |  |  |  |  |  |  |  | 
CC[C@H](C)[C@H](NC(=O)[C@H](Cc1ccc(O)cc1)NC(=O)[C@@H](NC(=O)[C@@H]1CCCN1C(=O)[C@H](CCCNC(=N)N)NC(=O)[C@H](CC(N)=O)NC(=O)[C@H](CC(N)=O)NC(=O)[C@H](CCCN)N=C(N(C)C)N(C)C)C(C)C)C(=O)N1C[C@H](F)C[C@H]1C(=O)N[C@@H](CCCNC(=N)N)C(=O)N1CCC[C@H]1C(=O)N[C@@H](CCCNC(=N)N)C(=O)N1CCC[C@H]1C(=O)N1CCC[C@H]1C(=O)N[C@@H](Cc1c[nH]cn1)C(=O)N1CCC[C@H]1C(=O)N[C@@H](CCCNC(=N)N)C(=O)N[C@@H](CC(C)C)C(=O)O [Api846] ({Orn(α-tetramethylguanidino)}-NNRPVYI[Pro(trans-4-F)]RPRPPHPRL-OH) | no | 33 ± 3.5 | 34 | ~ 45% |  |  |  |  |  |  | 
CC[C@H](C)[C@H](NC(=O)[C@H](Cc1ccc(O)cc1)NC(=O)[C@@H](NC(=O)[C@@H]1CCCN1C(=O)[C@H](CCCNC(=N)N)NC(=O)[C@H](CC(N)=O)NC(=O)[C@H](CC(N)=O)NC(=O)[C@H](CCCN)N=C(N(C)C)N(C)C)C(C)C)C(=O)N1CCC[C@H]1C(=O)N[C@@H](CCCNC(=N)N)C(=O)N1CCC[C@H]1C(=O)N[C@@H](CCCNC(=N)N)C(=O)N1CCC[C@H]1C(=O)N1CCC[C@H]1C(=O)N[C@@H](Cc1c[nH]cn1)C(=O)N1C[C@@H](F)C[C@H]1C(=O)N[C@@H](CCCNC(=N)N)C(=O)N[C@@H](CC(C)C)C(=O)O [Api849] ({Orn(α-tetramethylguanidino)}-NNRPVYIPRPRPPH[Pro(cis-4-F)]RL-OH) | no |  | 16 |  | 63 | 63 ± 8.9 |  |  |  |  | 
CC[C@H](C)[C@H](NC(=O)[C@H](Cc1ccc(O)cc1)NC(=O)[C@@H](NC(=O)[C@@H]1CCCN1C(=O)[C@H](CCCNC(=N)N)NC(=O)[C@H](CC(N)=O)NC(=O)[C@H](CC(N)=O)NC(=O)[C@H](CCCN)N=C(N(C)C)N(C)C)C(C)C)C(=O)N1CCC[C@H]1C(=O)N[C@@H](CCCNC(=N)N)C(=O)N1CCC[C@H]1C(=O)N[C@@H](CCCNC(=N)N)C(=O)N1CCC[C@H]1C(=O)N1CCC[C@H]1C(=O)N[C@@H](Cc1c[nH]cn1)C(=O)N1C[C@H](F)C[C@H]1C(=O)N[C@@H](CCCNC(=N)N)C(=O)N[C@@H](CC(C)C)C(=O)O [Api850] ({Orn(α-tetramethylguanidino)}-NNRPVYIPRPRPPH[Pro(trans-4-F)]RL-OH) | yes |  | 84 |  |  |  | reduced the area of the pre-50S peak | 28 | 28 ± 0.7 | 0.333 ± 0.002 | ~ 140%
